Results on 24 molecules are retold here after US20220073536A1 (Rigel Pharmaceuticals, Inc., priority 2003, published 2022).

Experiment [1] relates to cultured human mast cells (CHMC). The experiment in a line: CHMC low cell density IgE activation: tryptase assay. The experiment is classed as cell-based. To be noted: IgE activation. The gist of the method:
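Low-density CHMC, 1000-1500 cells/well in MT; 1 hr 37 °C; anti-IgE challenge 30 min 37 °C; supernatant tryptase via fluorogenic substrate, 30 min RT.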

Experiment [2] shares this test system. The experiment in a line: CHMC low cell density ionomycin activation: tryptase assay. To be noted: 3 pt, read-out: LD Tryptase, CHMC, Iono, 3 pt. The class given is cell-based.
[3] abbreviates: Homo sapiens, Mast cell, low cell density CHMC, tryptase release, 3 pt, read-out: LD Tryptase, CHMC, IgE, 3 pt.
The mark [4] stands for this setting: Homo sapiens, Mast cell, low cell density CHMC, tryptase release, 8 pt, read-out: LD Tryptase, CHMC, IgE, 8 pt.
Setting [5] is: Homo sapiens, Mast cell, low cell density CHMC, tryptase release.
[6] abbreviates: Homo sapiens, Mast cell, low cell density, 3 pt, read-out: LD Tryptase, CHMC, IgE, 3 pt.
Where [7] appears, read: Homo sapiens, Mast cell, low cell density, 8 pt, read-out: LD Tryptase, CHMC, IgE, 8 pt.
The mark [8] stands for this setting: Homo sapiens, Mast cell, low cell density.
The mark [9] stands for this setting: low cell density, 3 pt, read-out: LD Tryptase, CHMC, IgE, 3 pt.

Counter-ions that a name gives are not always drawn.

Turning to `COCCCn1ncc2cc(Nc3ncc(F)c(Nc4ccc5c(c4)NC(=O)[C@H](C)O5)n3)ccc21` [Compound 795, (S)-5-Fluoro-N2-[1-(3-methoxypropyl)indazol-5-yl]-N4-(2-methyl-3-oxo-2H,4H-benz[1,4]oxazin-6-yl)-2,4-pyrimidinediamine], the IC50 was < 10 µM in experiment [1] (setting [3]), < 10 µM in experiment [1] (setting [4]) and > 10 µM in experiment [2] (setting [5]).
As to `COCCCn1ncc2ccc(Nc3ncc(F)c(Nc4ccc(OC)c(Cl)c4)n3)cc21` [Compound 796, N4-(3-Chloro-4-methoxyphenyl)-5-fluoro-N2-[1-(3-methoxypropyl)indazol-6-yl]-2,4-pyrimidinediamine], the IC50 in experiment [1] (setting [3]) is < 10 µM; in experiment [1] (setting [4]), < 10 µM; in experiment [2] (setting [5]), > 10 µM.
For the molecule `COCCCn1ncc2ccc(Nc3ncc(F)c(Nc4ccc(Cl)c(Cl)c4)n3)cc21` [Compound 797, N4-(3,4-Dichlorophenyl)-5-fluoro-N2-[1-(3-methoxypropyl)indazol-6-yl]-2,4-pyrimidinediamine], the figures for the IC50 in experiment [1] (setting [3]), in experiment [1] (setting [4]) and in experiment [2] (setting [5]) were < 10 µM, < 10 µM and > 10 µM, respectively.
Consider `COCCCn1ncc2ccc(Nc3ncc(F)c(Nc4ccc5c(c4)NC(=O)C(C)(C)O5)n3)cc21` [Compound 798, N4-(2,2-Dimethyl-3-oxo-4H-benz[1,4]oxazin-6-yl)-5-fluoro-N2-[1-(3-methoxypropyl)indazol-6-yl]-2,4-pyrimidinediamine], for which the IC50 in experiment [1] (setting [3]), in experiment [1] (setting [4]) and in experiment [2] (setting [5]) was < 10 µM in each case.
With `COCCCn1ncc2ccc(Nc3ncc(F)c(Nc4ccc5c(c4)NC(=O)[C@H](C)O5)n3)cc21` [Compound 799, (S)-5-Fluoro-N2-[1-(3-methoxypropyl)indazol-6-yl]-N4-(2-methyl-3-oxo-2H,4H-benz[1,4]oxazin-6-yl)-2,4-pyrimidinediamine], the IC50 was < 10 µM in experiment [1] (setting [3]), < 10 µM in experiment [1] (setting [4]) and > 10 µM in experiment [2] (setting [5]).
Regarding `CC1(C)Oc2ccc(Nc3nc(Nc4ccc5[nH]c(C(F)(F)F)nc5c4)ncc3F)cc2NC1=O` [Compound 802, N4-(2,2-Dimethyl-3-oxo-4H-benz[1,4]oxazin-6-yl)-5-fluoro-N2-(2-trifluoromethyl-1H-benzimidazol-5-yl)-2,4-pyrimidinediamine], the IC50 is < 10 µM in experiment [1] (setting [3]), < 10 µM in experiment [1] (setting [4]) and > 10 µM in experiment [2] (setting [5]).
Regarding `C[C@@H]1Oc2ccc(Nc3nc(Nc4ccc5[nH]c(C(F)(F)F)nc5c4)ncc3F)cc2NC1=O` [Compound 803, (S)-5-Fluoro-N4-(2-methyl-3-oxo-2H,4H-benz[1,4]oxazin-6-yl)-N2-(2-trifluoromethyl-1H-benzimidazol-5-yl)-2,4-pyrimidinediamine], the IC50 in experiment [1] (setting [3]) is < 10 µM; in experiment [1] (setting [4]) it was < 10 µM; in experiment [2] (setting [5]) it was > 10 µM.
Take `Cc1nc2ccc(Nc3ncc(F)c(Nc4ccc5c(c4)NC(=O)[C@H](C)O5)n3)cc2[nH]1` [Compound 811, (S)-5-Fluoro-N2-(2-methyl-3H-benzimidazol-5-yl)-N4-(2-methyl-3-oxo-2H,4H-benz[1,4]oxazin-6-yl)-2,4-pyrimidinediamine]: the figures for the IC50 in experiment [1] (setting [3]), in experiment [1] (setting [4]) and in experiment [2] (setting [5]) were < 10 µM, < 10 µM and > 10 µM, respectively.
For `COc1ccc(Nc2nc(Nc3ccc4c(cnn4CCCO)c3)ncc2F)cc1Cl` [Compound 827, N4-(3-Chloro-4-methoxyphenyl)-5-fluoro-N2-[1-(3-hydroxypropyl)indazol-5-yl]-2,4-pyrimidinediamine p-Toluenesulfonic Acid Salt], the IC50 is < 10 µM in experiment [1] (setting [3]) and > 10 µM in experiment [2] (setting [5]).
On to `COc1ccc(Nc2nc(Nc3ccc4c(cnn4CCCNS(C)(=O)=O)c3)ncc2F)cc1Cl` [Compound 832, N4-(3-Chloro-4-methoxyphenyl)-5-fluoro-N2-[1-[3-(N-methylsulfonylamino)propyl]indazol-5-yl]-2,4-pyrimidinediamine], for which the IC50 in experiment [1] (setting [3]) was < 10 µM; in experiment [1] (setting [4]), < 10 µM; in experiment [2] (setting [5]), > 10 µM.
Take `CS(=O)(=O)NCCCn1ncc2cc(Nc3ncc(F)c(Nc4ccc(Cl)c(Cl)c4)n3)ccc21` [Compound 833, N4-(3,4-Dichlorophenyl)-5-fluoro-N2-[1-[3-(N-methylsulfonylamino)propyl]indazol-5-yl]-2,4-pyrimidinediamine]: the IC50 was < 10 µM in experiment [1] (setting [3]), < 10 µM in experiment [1] (setting [4]) and > 10 µM in experiment [2] (setting [5]).
Take `CC1(C)Oc2ccc(Nc3nc(Nc4ccc5c(cnn5CCCNS(C)(=O)=O)c4)ncc3F)cc2NC1=O` [Compound 834, N4-(2,2-Dimethyl-3-oxo-4H-benz[1,4]oxazin-6-yl)-5-fluoro-N2-[1-[3-(N-methylsulfonylamino)propyl]indazol-5-yl]-2,4-pyrimidinediamine]: the results for the IC50 in experiment [1] (setting [3]), in experiment [1] (setting [4]) and in experiment [2] (setting [5]) were > 10 µM, < 10 µM and > 10 µM, respectively.
For the molecule `C[C@@H]1Oc2ccc(Nc3nc(Nc4ccc5c(cnn5CCCNS(C)(=O)=O)c4)ncc3F)cc2NC1=O` [Compound 835, (S)-5-Fluoro-N4-(2-methyl-3-oxo-2H,4H-benz[1,4]oxazin-6-yl)-N2-[1-(3-(N-methylsulfonylamino)propyl)indazol-5-yl]-2,4-pyrimidinediamine], the IC50 was < 10 µM in experiment [1] (setting [3]), < 10 µM in experiment [1] (setting [4]) and > 10 µM in experiment [2] (setting [5]).
Take `CC1(C)Oc2ccc(Nc3nc(Nc4ccc5c(cnn5CCCNS(C)(=O)=O)c4)ncc3F)nc2NC1=O` [Compound 836, N4-(2,2-Dimethyl-3-oxo-4H-5-pyrid[1,4]oxazin-6-yl)-5-fluoro-N2-[1-[3-(N-methylsulfonylamino)propyl]indazol-5-yl]-2,4-pyrimidinediamine]: the IC50 in experiment [1] (low cell density CHMC, tryptase release, 3 pt, read-out: LD Tryptase, CHMC, IgE, 3 pt) was < 10 µM; in experiment [1] (low cell density CHMC, tryptase release, 8 pt, read-out: LD Tryptase, CHMC, IgE, 8 pt), < 10 µM; in experiment [2] (low cell density CHMC, tryptase release), > 10 µM.
Regarding `Cc1nc2ccc(Nc3ncc(F)c(Nc4ccc5c(n4)NC(=O)C(C)(C)O5)n3)cc2[nH]1` [Compound 845, N4-(2,2-Dimethyl-3-oxo-4H-5-pyrid[1,4]oxazin-6-yl)-5-fluoro-N2-(2-methyl-3H-benzimidazol-5-yl)-2,4-pyrimidinediamine], the IC50 in experiment [1] (setting [4]) and in experiment [2] (setting [5]) was < 10 µM throughout.
As for `CC1(C)Oc2ccc(Nc3nc(Nc4ccc5[nH]c(C(F)(F)F)nc5c4)ncc3F)nc2NC1=O` [Compound 846, N4-(2,2-Dimethyl-3-oxo-4H-5-pyrid[1,4]oxazin-6-yl)-5-fluoro-N2-(2-trifluoromethyl-1H-benzimidazol-5-yl)-2,4-pyrimidinediamine], the IC50 in experiment [1] (setting [4]) and in experiment [2] (setting [5]) was < 10 µM in each case.
Take `Cn1ncc2ccc(Nc3ncc(F)c(Nc4ccc5c(c4)NC(=O)C(C)(C)O5)n3)cc21` [Compound 993, N4-(2,2-Dimethyl-3-oxo-4H-benz[1,4]oxazin-6-yl)-5-fluoro-N2-(1-methylindazol-6-yl)-2,4-pyrimidinediamine p-Toluenesulfonic Acid Salt]: the IC50 in experiment [1] (setting [6]), in experiment [1] (setting [7]) and in experiment [2] (setting [8]) was < 10 µM throughout.
Consider `Cc1cc(Nc2ncc(F)c(Nc3ccc4c(c3)OCCO4)n2)cc(Cl)c1O` [Compound 995, N2-(3-Chloro-4-hydroxy-5-methylphenyl)-N4-(3,4-ethylenedioxyphenyl)-5-fluoro-2,4-pyrimidinediamine], for which the IC50 in experiment [1] (setting [6]), in experiment [1] (setting [7]) and in experiment [2] (setting [8]) was < 10 µM in each case.
On to `Cc1cc(Nc2ncc(F)c(Nc3ccc4c(n3)NC(=O)C(C)(C)O4)n2)cc(Cl)c1O` [Compound 996, N2-(3-Chloro-4-hydroxy-5-methylphenyl)-N4-(2,2-dimethyl-3-oxo-4H-5-pyrid[1,4]oxazin-6-yl)-5-fluoro-2,4-pyrimidinediamine], for which the IC50 in experiment [1] (setting [9]) is < 10 µM; in experiment [1] (low cell density, 8 pt, read-out: LD Tryptase, CHMC, IgE, 8 pt) it was < 10 µM; in experiment [2] (low cell density) it was > 10 µM.
On to `COc1c(C)cc(Nc2ncc(F)c(Nc3ccc4c(n3)NC(=O)C(C)(C)O4)n2)cc1C` [Compound 997, N2-(3,5-Dimethyl-4-methoxyphenyl)-N4-(2,2-dimethyl-3-oxo-4H-5-pyrid[1,4]oxazin-6-yl)-5-fluoro-2,4-pyrimidinediamine], for which the IC50 is < 10 µM in experiment [1] (setting [6]), < 10 µM in experiment [1] (setting [7]) and > 10 µM in experiment [2] (setting [8]).
With `COc1c(C)cc(Nc2ncc(F)c(Nc3ccc4c(c3)OCCO4)n2)cc1C` [Compound 998], the figures for the IC50 in experiment [1] (setting [6]), in experiment [1] (setting [7]) and in experiment [2] (setting [8]) were < 10 µM, < 10 µM and > 10 µM, respectively.
Regarding `COc1c(C)cc(Nc2ncc(F)c(Nc3ccc4c(c3)OCCO4)n2)cc1Cl` [Compound 999], the IC50 in experiment [1] (setting [6]), in experiment [1] (setting [7]) and in experiment [2] (setting [8]) was < 10 µM throughout.
On to `Cc1ccccc1Nc1ncc(F)c(Nc2ccc3c(n2)NC(=O)C(C)(C)O3)n1` [Compound 1004, N4-(2,2-Dimethyl-3-oxo-4H-5-pyrid[1,4]oxazin-6-yl)-5-fluoro-N2-(2-methylphenyl)-2,4-pyrimidinediamine], for which the IC50 in experiment [1] (setting [9]) was < 10 µM; in experiment [2] (low cell density) it was > 10 µM.
In the same order, the values of `CN1C(=O)C(C)(C)Oc2ccc(N(C)c3nc(Cl)ncc3F)nc21` [Compound 1005, 2-Chloro-5-fluoro-N4-methyl-N4-(3-oxo-2,2,4-trimethyl-5-pyrid[1,4]oxazin-6-yl)-4-pyrimidineamine] are < 10 µM and > 10 µM.
